Test results reported in patent US9353116B2, “Methods and compositions for kinase inhibition” (THE REGENTS OF THE UNIVERSITY OF CALIFORNIA, priority 2010, dated 2016).
Like-named read-outs stand apart in the source and are kept apart here.

Experiments:
[1] = biological target: WT c-Src (Gallus gallus (Chicken), UniProt P00523); experiment: In vitro kinase assay, WT c-Src; type: biochemical; conditions: inhibitor preincubated with Src ten minutes prior to addition of ATP; read-out: WT c-Src IC50
Protocol: (§1) In vitro kinase assays for c-Src variants were performed in 50 mM Tris (pH 8.0), 10 mM MgCl2 and 1 mg/mL BSA. When obtaining kinetic parameters (kcat, Km) kinase and peptide substrate (IYGEFKKK) (SEQ ID NO:51) concentrations were 2 nM and 500 μM, respectively, while ATP concentrations ranged from 2000-0.655 μM. Addition of nonradioactive ATP supplemented with ^32P ATP (3,000 Ci/mmol, NEN) was used to initiate kinase reactions. Time points were selected such that product formation never exceeded 10%. Reactions were quenched by spotting 3 μL quantities onto phosphocellulose sheets (P81, Whatman). Afterwards, the sheets were washed 3×5 minutes in 0.5% phosphoric acid and dried. Radioactivity was measured by phosphorimaging and recorded on a Typhoon fluorescence imager (Molecular Dynamics). Data were plotted as rate (min^−1) versus ATP concentration and fitted to the Michaelis-Menten equation, v=[(kcat)[S]]/(Km+[S]), using Kaleidagraph software (Synergy) to extract kinetic parameters. When obtaining IC50 values for the inhibitors, 2% (v/v) DMSO was included in kinase reactions. In these cases ATP, peptide, and enzyme concentrations were 15 nM, 100 μM and 5 nM, respectively, while inhibitor concentrations ranged from 10,000-0.610 nM. In all cases, a ten-minute preincubation step between the kinase and the inhibitor preceded addition of ATP and a fifteen-minute reaction. The data was fitted to a sigmoidal dose-response curve using Prism 4.0c (GraphPad Software) to obtain IC50 values.

[2] = biological target: I338T v-Src (Rous sarcoma virus (strain H-19), UniProt P25020, I338T); type: cell-based
Protocol: (§2) Curr Biol 8(5):257-266. Cells were grown to 60-90% confluence in DMEM supplemented with fetal bovine serum (10%), penicillin ‘G’ (100 units/ml) and streptomycin sulfate (100 μg/ml) (PenStrep, UCSF Cell Culture Facility) prior to treatment with kinase inhibitors dissolved in DMSO (final DMSO concentration, 0.5%). Following 1 hour of incubation with inhibitors at 37° C., cells were harvested in lysis buffer (50 mM Tris (pH 7.4), 300 mM NaCl, 5 mM EDTA, 1% triton, 0.02% NaN3, 1× complete mini protease inhibitor (Roche), 1 mM PMSF, 1×PHOS-stop (Roche), 0.02 μM microcystin, 2 mM sodium orthovanadate), normalized for concentration and analyzed by Western blot for global phosphotyrosine levels (4G10, Millipore, 1:1000). Levels of β-actin (β-actin Antibody, Cell Signaling, 1:1000) and v-Src (Src 32G6 rabbit mAb, Cell Signaling, 1:1000) were ascertained by Western blot.
(§3) I338C (v-Src-ES1, SEQ ID NO:48), I338T (SEQ ID NO:49), I338G (v-Src-AS1, SEQ ID NO:50) and WT v-Src-transformed NIH-3T3 cell lines were generated. Unlike c-Src, v-Src is constitutively active and harbors an isoleucine gatekeeper. The I338T v-Src variant was generated for consistency with the in vitro c-Src studies. For each cell line, global levels of phosphotyrosine were analyzed (FIG. 7). […]

[3] = biological target: T338C c-Src (Gallus gallus (Chicken), UniProt P00523, T338C); experiment: In vitro kinase assay, T338C c-Src (c-Src-ES1); type: biochemical
Protocol: as §1, with “In all cases, a ten-minute preincubation step between the kinase and the inhibitor preceded addition of ATP and a fifteen-minute reaction.” left out

[4] = tested on: 307 kinases; experiment: Kinome-wide profiling (SelectScreen Kinase Profiling Service); type: biochemical; conditions: compounds at 1 μM, ATP at Km,app
Protocol: The percent inhibition results in FIG. were generated with biochemical enzymatic kinase assays using the SelectScreen® Kinase Profiling Service (Life Technologies Corporation, Madison, Wis.). Compounds were assayed at 1 μM at an ATP concentration equal to the ATP Km,app for the assay following the detailed procedures described in the SelectScreen® Customer Protocol and Assay Conditions documents located at www.invitrogen.com/kinaseprofiling.
Compounds that were profiled include, but are not limited to, 3, 4, 9, 13, and 20. […] The exocyclic amine mimics N6 of ATP and plays an important role in a hydrogen bonding interaction with the hinge region of kinases.

[5] = biological target: c-Src-ES3 (T338C/V323S) (Gallus gallus (Chicken), UniProt P00523, T338C/V323S); experiment: In vitro kinase assay, c-Src-ES3; type: biochemical
Protocol: as §1

[6] = biological target: v-Src-ES1 (I338C) (Rous sarcoma virus (strain H-19), UniProt P25020, I338C); experiment: Inhibition assay with v-Src-ES1 transformed NIH-3T3 cells; type: cell-based
Protocol: as §2, §3

`CC(C)n1nc(Cc2cccc(C(=O)CF)c2)c2c(N)ncnc21` [Compound 13, 1-(3-((4-amino-1-isopropyl-1H-pyrazolo[3,4-d]pyrimidin-3-yl)methyl)phenyl)-2-fluoroethanone] was tested, and the IC50 [1] was greater than 5000 nM, the “inhibition of I338T v-Src in cells (global phosphotyrosine levels)” value [2] was “neither 9 nor 13 inhibited I338T v-Src” and the “time dependence of inhibition of T338C c-Src” value [3] was “time-dependent manner”. For the same compound, the IC50 ([3]; ES1 = T338C, read-out: c-Src variant IC50 (nM) ES1) was 338 nM, the “fold more potent than the corresponding ketone 14” value ([3]; T338C c-Src) was greater than 13 fold and the IC50 ([3]; T338C c-Src IC50 (nM), preincubation time 2 min) was 1280 nM. For the same compound, the IC50 ([3]; T338C c-Src IC50 (nM), preincubation time 20 min) was 318 nM, the IC50 ([3]; T338C c-Src IC50 (nM), preincubation time 40 min) was 136 nM and the IC50 ([3]; inhibitor preincubated with Src ten minutes prior to addition of ATP, read-out: T338C c-Src IC50) was 338 nM. For the same compound, the “off-target profile in kinome-wide screen” value [4] was “clean profile”, the IC50 ([5]; ES3 = T338C/V323S, read-out: c-Src variant IC50 (nM) ES3) was 29 nM and the “fold improvement in potency with V323S mutation” value ([5]; c-Src-ES3 relative to c-Src-ES1) was 12 fold. The “inhibition of v-Src-ES1 in cells (global phosphotyrosine levels)” value [6] was “inhibited v-Src-ES1 in a dose-dependent manner”.
